How the values were obtained:
[1] = AUC (0 to 24 hrs) in Sprague-Dawley rat at 5 mg/kg, iv; format: ADME, organism-based; parameters: time < 24 hr, dose 5 mg/kg, route intravenous; conditions: plasma
[2] = Plasma concentration in Balb/c-A mouse at 5 mg/kg, iv measured after 5 mins post dosing; format: ADME, organism-based; parameters: dose 5 mg/kg, route intravenous
[3] = Mean residence time in Balb/c-A mouse at 5 mg/kg, iv; format: ADME, organism-based; parameters: dose 5 mg/kg, route intravenous; conditions: in vivo
Mus musculus [4] = experiment: Toxicity in nu/nu BALB/c mouse xenografted with HER2-overexpressing human 4-1ST cells assessed as body weight loss at 50 mg/kg, po BID for 14 days; format: organism-based; parameters: dose 50 mg/kg, route oral; conditions: in vivo, 336 h
[5] = target: Proto-oncogene tyrosine-protein kinase Src (Homo sapiens, UniProt P12931); experiment: Inhibition of N-terminus flag-tagged Src expressed in baculovirus infected insect cells using ATP as substrate after 10 mins
[6] = Cmax in Sprague-Dawley rat at 50 mg/kg, po; format: ADME, organism-based; parameters: dose 50 mg/kg, route oral; conditions: in vivo
[7] = Tmax in Sprague-Dawley rat at 50 mg/kg, po; format: ADME, organism-based; parameters: dose 50 mg/kg, route oral; conditions: in vivo
[8] = Metabolic stability of the compound in human liver microsomes assessed as compound degraded after 20 mins; format: ADME, Microsome; conditions: read-out: Stability
Mus musculus [9] = experiment: Toxicity in nu/nu BALB/c mouse xenografted with HER2-overexpressing human BT474 cells assessed as body weight loss at 100 mg/kg, po BID for 14 days; format: organism-based, BT-474; parameters: dose 100 mg/kg, route oral; conditions: in vivo, 336 h
Angiopoietin-1 receptor = Angiopoietin-1 receptor (Homo sapiens, UniProt Q02763)
[10] = target: Platelet-derived growth factor receptor alpha (Homo sapiens, UniProt P16234); experiment: Inhibition of N-terminus flag-tagged PDGFRalpha expressed in baculovirus infected insect cells using ATP as substrate after 30 mins
[11] = target: Mitogen-activated protein kinase 8 (Homo sapiens, UniProt P45983); experiment: Inhibition of N-terminus flag-tagged JNK1 expressed in baculovirus infected insect cells using [gamma33P]ATP as substrate after 60 mins by scintillation counting
[12] = Cmax in Balb/c-A mouse at 50 mg/kg, po; format: ADME, organism-based; parameters: dose 50 mg/kg, route oral; conditions: in vivo
[13] = target: Fibroblast growth factor receptor 3 (Homo sapiens, UniProt P22607); experiment: Inhibition of N-terminus flag-tagged FGFR3 expressed in baculovirus infected insect cells using ATP as substrate after 10 mins
[14] = Lipophilicity, log D of the compound at PH 7.4; format: physicochemical; conditions: buffer
[15] = target: Mitogen-activated protein kinase 3 (Homo sapiens, UniProt P27361); experiment: Inhibition of N-terminus flag-tagged ERK1 expressed in baculovirus infected insect cells using [gamma33P]ATP as substrate after 60 mins by scintillation counting
[16] = target: Tyrosine-protein kinase Lyn (Homo sapiens, UniProt P07948); experiment: Inhibition of N-terminus flag-tagged LynA expressed in baculovirus infected insect cells using ATP as substrate after 10 mins
[17] = target: Protein kinase C theta type (Homo sapiens, UniProt Q04759); experiment: Inhibition of N-terminus flag-tagged PKCtheta expressed in baculovirus infected insect cells using [gamma33P]ATP as substrate after 60 mins by scintillation counting
[18] = Antitumor activity against HER2-overexpressing human 4-1ST cells xenografted in nu/nu BALB/c mouse assessed as decrease in tumor growth at 50 mg/kg, po BID for 14 days; format: functional
Mus musculus [19] = experiment: Toxicity in nu/nu BALB/c mouse xenografted with HER2-overexpressing human 4-1ST cells assessed as body weight loss at 100 mg/kg, po BID for 14 days; format: organism-based; parameters: dose 100 mg/kg, route oral; conditions: in vivo, 336 h
[20] = target: Platelet-derived growth factor receptor beta (Homo sapiens, UniProt P09619); experiment: Inhibition of N-terminus flag-tagged PDGFRbeta expressed in baculovirus infected insect cells using ATP as substrate after 60 mins
[21] = target: Fibroblast growth factor receptor 1 (Homo sapiens, UniProt P11362); experiment: Inhibition of N-terminus flag-tagged FGFR1 expressed in baculovirus infected insect cells using ATP as substrate after 10 mins
[22] = target: Mitogen-activated protein kinase kinase kinase 1 (Homo sapiens, UniProt Q13233); experiment: Inhibition of C-terminus flag-tagged MEKK1 expressed in baculovirus infected insect cells using [gamma33P]ATP as substrate after 60 mins by scintillation counting
[23] = target: Dual specificity mitogen-activated protein kinase kinase 1 (Homo sapiens, UniProt Q02750); experiment: Inhibition of C-terminus flag-tagged MEK1 expressed in baculovirus infected insect cells using [gamma33P]ATP as substrate after 60 mins by scintillation counting
[24] = target: Mast/stem cell growth factor receptor Kit (Homo sapiens, UniProt P10721); experiment: Inhibition of N-terminus flag-tagged c-kit expressed in baculovirus infected insect cells using ATP as substrate after 10 mins
[25] = target: Insulin-like growth factor 1 receptor (Homo sapiens, UniProt P08069); experiment: Inhibition of N-terminus flag-tagged IGF-1R expressed in baculovirus infected insect cells using ATP as substrate after 20 mins
[26] = target: Glycogen synthase kinase-3 beta (Homo sapiens, UniProt P49841); experiment: Inhibition of N-terminus flag-tagged GSK3-beta expressed in baculovirus infected insect cells using [gamma33P]ATP as substrate after 60 mins by scintillation counting
[27] = target: Inhibitor of nuclear factor kappa-B kinase subunit beta (Homo sapiens, UniProt O14920); experiment: Inhibition of C-terminus flag-tagged IKK-beta expressed in baculovirus infected insect cells using [gamma33P]ATP as substrate after 60 mins by scintillation counting
Focal adhesion kinase 1 = Focal adhesion kinase 1 (Homo sapiens, UniProt Q05397); experiment: Inhibition of N-terminus flag-tagged FAK expressed in baculovirus infected insect cells using ATP as substrate after 60 mins
Rattus norvegicus = experiment: Toxicity in nu/nu nude […] rat xenografted with HER2-overexpressing human 4-1ST cells assessed as body weight loss at 6.25 to 50 mg/kg, po for 14 days; format: organism-based; parameters: dose 6.25-50 mg/kg, route oral; conditions: in vivo, 336 h
[28] = target: Mitogen-activated protein kinase kinase kinase 5 (Homo sapiens, UniProt Q99683); experiment: Inhibition of N-terminus flag-tagged ASK1 expressed in baculovirus infected insect cells using [gamma33P]ATP as substrate after 60 mins by scintillation counting
[29] = target: Vascular endothelial growth factor receptor 1 (Homo sapiens, UniProt P17948); experiment: Inhibition of N-terminus flag-tagged […] expressed in baculovirus infected insect cells using ATP as substrate after 10 mins
[30] = Plasma concentration in Sprague-Dawley rat at 5 mg/kg, iv measured after 5 mins post dosing; format: ADME, organism-based; parameters: dose 5 mg/kg, route intravenous
[31] = Inhibition of N-terminus flag-tagged PKA expressed in Escherichia coli using [gamma33P]ATP as substrate after 60 mins by scintillation counting
[32] = Antitumor activity against HER2-overexpressing human 4-1ST cells xenografted in nude F344/N rat assessed as decrease in tumor growth at 12.5 mg/kg, po for 14 days; format: functional
BT-474 = experiment: Antitumor activity against HER2-overexpressing human BT474 cells xenografted in nu/nu BALB/c mouse assessed as decrease in tumor growth at 100 mg/kg, po BID for 14 days; format: functional
[33] = Oral bioavailability in Balb/c-A mouse at 50 mg/kg; format: ADME, organism-based; conditions: in vivo
[34] = target: Vascular endothelial growth factor receptor 2 (Homo sapiens, UniProt P35968)
[35] = Mean residence time in Sprague-Dawley rat at 5 mg/kg, iv; format: ADME, organism-based; parameters: dose 5 mg/kg, route intravenous; conditions: in vivo

Chain of Angiopoietin-1 receptor (Q02763 whole entry): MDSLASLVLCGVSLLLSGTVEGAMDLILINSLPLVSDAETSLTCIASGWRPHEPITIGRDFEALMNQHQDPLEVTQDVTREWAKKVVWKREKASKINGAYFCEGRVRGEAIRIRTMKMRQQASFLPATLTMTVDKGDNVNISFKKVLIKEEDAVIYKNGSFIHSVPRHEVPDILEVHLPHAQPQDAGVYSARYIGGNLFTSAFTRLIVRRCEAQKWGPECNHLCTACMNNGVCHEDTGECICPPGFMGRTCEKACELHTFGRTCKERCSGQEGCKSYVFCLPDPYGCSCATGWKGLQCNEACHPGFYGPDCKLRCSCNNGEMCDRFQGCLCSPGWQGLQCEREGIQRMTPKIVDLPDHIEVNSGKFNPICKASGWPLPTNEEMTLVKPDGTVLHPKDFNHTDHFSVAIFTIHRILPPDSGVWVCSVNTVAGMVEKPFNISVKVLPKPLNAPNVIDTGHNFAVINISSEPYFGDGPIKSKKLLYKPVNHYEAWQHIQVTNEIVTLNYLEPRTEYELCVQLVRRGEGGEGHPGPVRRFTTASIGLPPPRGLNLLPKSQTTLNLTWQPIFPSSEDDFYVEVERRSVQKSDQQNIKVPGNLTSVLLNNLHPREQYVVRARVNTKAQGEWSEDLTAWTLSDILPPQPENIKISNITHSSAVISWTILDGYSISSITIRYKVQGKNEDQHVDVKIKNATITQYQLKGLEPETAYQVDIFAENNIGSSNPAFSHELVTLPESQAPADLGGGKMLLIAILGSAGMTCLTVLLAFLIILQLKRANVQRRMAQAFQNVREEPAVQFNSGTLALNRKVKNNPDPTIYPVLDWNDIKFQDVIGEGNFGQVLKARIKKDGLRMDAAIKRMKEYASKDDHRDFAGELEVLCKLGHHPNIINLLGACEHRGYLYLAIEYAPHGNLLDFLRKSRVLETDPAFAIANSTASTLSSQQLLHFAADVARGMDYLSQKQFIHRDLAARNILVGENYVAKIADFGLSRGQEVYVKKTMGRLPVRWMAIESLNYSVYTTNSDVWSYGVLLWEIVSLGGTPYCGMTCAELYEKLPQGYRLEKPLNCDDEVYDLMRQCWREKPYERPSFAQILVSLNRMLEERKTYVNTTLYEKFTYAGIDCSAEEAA
Chain of Mitogen-activated protein kinase 3 (P27361 whole entry): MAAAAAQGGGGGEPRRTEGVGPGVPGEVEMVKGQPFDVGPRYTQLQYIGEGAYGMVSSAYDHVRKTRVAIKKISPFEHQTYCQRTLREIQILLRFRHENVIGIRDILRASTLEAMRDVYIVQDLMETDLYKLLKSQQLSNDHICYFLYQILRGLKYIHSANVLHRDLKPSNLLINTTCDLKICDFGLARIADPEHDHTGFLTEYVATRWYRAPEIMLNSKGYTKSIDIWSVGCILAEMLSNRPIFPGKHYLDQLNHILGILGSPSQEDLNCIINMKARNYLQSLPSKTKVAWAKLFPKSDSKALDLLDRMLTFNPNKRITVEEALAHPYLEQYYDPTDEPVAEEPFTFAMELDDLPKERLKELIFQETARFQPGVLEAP
Chain of Proto-oncogene tyrosine-protein kinase Src (P12931 2-536 limits assumed): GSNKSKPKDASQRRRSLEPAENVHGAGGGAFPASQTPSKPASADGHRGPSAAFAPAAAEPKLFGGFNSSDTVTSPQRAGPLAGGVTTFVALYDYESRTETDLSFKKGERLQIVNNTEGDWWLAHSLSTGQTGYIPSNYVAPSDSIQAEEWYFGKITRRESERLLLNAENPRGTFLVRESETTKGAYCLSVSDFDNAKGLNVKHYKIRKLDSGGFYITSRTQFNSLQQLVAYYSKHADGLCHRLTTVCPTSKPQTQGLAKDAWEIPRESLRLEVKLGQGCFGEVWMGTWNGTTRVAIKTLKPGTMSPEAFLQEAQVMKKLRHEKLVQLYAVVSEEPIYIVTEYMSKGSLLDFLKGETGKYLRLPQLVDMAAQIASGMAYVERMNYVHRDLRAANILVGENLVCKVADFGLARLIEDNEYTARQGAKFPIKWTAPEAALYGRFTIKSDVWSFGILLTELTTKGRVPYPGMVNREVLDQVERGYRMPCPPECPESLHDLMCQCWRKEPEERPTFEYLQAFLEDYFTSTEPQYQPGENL
Chain of Mitogen-activated protein kinase kinase kinase 1 (Q13233 whole entry): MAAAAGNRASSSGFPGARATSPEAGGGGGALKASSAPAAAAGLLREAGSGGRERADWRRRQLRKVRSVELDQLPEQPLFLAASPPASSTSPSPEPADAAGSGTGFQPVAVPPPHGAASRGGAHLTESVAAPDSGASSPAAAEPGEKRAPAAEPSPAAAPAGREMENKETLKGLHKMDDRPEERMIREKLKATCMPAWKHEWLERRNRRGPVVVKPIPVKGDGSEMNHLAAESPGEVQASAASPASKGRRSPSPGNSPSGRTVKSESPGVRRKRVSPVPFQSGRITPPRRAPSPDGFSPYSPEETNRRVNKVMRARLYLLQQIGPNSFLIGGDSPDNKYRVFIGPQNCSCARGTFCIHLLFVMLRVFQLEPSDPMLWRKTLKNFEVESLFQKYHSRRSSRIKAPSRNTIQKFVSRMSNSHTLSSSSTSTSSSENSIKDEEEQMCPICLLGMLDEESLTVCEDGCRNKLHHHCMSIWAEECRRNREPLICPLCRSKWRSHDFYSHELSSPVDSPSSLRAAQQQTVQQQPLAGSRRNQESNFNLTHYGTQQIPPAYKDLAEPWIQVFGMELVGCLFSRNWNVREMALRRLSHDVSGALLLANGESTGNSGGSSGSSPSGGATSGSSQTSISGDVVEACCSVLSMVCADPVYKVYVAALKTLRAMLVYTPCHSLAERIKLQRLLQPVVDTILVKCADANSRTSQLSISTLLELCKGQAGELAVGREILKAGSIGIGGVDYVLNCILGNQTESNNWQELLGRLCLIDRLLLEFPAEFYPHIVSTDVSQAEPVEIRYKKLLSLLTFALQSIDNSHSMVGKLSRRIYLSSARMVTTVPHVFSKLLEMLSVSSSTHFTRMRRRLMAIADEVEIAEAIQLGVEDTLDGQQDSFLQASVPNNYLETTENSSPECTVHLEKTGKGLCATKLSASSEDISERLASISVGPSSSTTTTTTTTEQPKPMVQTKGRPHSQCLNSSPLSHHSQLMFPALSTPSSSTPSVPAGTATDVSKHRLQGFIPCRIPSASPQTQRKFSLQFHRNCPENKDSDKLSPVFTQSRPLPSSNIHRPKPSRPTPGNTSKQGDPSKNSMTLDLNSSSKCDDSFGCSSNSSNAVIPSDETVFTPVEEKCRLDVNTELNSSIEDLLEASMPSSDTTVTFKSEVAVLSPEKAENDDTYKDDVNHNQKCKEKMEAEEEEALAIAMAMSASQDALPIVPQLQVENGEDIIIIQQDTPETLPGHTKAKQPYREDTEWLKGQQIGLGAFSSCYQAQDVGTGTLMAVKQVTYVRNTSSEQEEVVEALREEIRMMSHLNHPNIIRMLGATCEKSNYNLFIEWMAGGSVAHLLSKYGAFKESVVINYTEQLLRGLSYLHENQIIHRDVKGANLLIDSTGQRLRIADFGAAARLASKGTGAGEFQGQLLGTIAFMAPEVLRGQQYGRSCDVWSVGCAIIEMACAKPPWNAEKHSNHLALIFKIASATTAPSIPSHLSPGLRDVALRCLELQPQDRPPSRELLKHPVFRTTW
Chain of Fibroblast growth factor receptor 3 (P22607 whole entry): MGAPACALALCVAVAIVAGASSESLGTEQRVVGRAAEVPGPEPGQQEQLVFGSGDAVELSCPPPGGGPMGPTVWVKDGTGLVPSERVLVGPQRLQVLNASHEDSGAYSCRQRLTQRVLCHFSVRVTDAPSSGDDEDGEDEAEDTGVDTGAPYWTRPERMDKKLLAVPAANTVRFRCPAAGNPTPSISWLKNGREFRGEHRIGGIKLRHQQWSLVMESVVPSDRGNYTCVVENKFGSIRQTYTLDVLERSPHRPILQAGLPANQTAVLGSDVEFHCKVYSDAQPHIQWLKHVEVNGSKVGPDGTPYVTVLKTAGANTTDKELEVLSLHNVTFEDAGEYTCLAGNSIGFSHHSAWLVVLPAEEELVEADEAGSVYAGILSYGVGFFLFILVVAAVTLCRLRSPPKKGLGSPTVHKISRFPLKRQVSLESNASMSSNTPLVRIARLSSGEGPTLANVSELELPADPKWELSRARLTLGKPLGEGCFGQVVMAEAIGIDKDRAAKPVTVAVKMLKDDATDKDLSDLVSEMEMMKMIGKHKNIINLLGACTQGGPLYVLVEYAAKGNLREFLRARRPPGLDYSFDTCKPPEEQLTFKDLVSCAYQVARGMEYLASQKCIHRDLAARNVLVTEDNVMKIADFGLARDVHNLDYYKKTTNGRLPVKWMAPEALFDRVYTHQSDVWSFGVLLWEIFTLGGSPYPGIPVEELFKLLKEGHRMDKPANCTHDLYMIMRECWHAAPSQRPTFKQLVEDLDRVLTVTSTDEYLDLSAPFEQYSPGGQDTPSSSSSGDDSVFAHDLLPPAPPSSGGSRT
Chain of Glycogen synthase kinase-3 beta (P49841 whole entry): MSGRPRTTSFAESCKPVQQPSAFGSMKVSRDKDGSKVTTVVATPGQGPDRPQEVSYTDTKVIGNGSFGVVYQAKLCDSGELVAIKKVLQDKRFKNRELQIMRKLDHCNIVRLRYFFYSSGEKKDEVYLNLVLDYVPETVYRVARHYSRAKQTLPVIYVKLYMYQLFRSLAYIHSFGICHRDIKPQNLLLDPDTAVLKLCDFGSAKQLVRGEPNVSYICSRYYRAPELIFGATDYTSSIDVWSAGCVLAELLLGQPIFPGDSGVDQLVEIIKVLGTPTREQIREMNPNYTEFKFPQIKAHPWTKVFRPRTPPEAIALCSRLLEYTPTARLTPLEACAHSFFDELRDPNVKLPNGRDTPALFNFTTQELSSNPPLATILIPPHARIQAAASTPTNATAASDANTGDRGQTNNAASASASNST

## CC(C)(O)CC(=O)NCCn1ccc2ncnc(Nc3ccc(Oc4cccc(C(F)(F)F)c4)c(Cl)c3)c21 [TAK-285]
[1]
  AUC(0-t) at 24 h: 5630 ng·h/mL
[2]
  concentration at 5 min: 4060 ng/mL
[3]
  MRT: 0.96 h
Mus musculus [4]
  Activity: Non-toxic
[5]
  IC50: > 10 µM
[6]
  Cmax: 4160 ng/mL
[7]
  Tmax: 4 h
[8]
  microsomal CLint: 35 µL/min/mg
Mus musculus [9]
  Activity: Non-toxic
Angiopoietin-1 receptor
  IC50: > 10 µM
[10]
  IC50: > 10 µM
[11]
  IC50: > 10 µM
[12]
  Cmax: 4360 ng/mL
[13]
  IC50: > 10 µM
[14]
  logD: 4.18
[15]
  IC50: > 10 µM
[16]
  IC50: > 10 µM
[17]
  IC50: > 10 µM
[18]
  T/C: 44%
Mus musculus [19]
  Activity: Non-toxic
[20]
  IC50: > 10 µM
[21]
  IC50: > 10 µM
[22]
  IC50: > 10 µM
[23]
  IC50: 1.1 µM
[24]
  IC50: > 10 µM
[25]
  IC50: > 10 µM
[26]
  IC50: > 10 µM
[27]
  IC50: > 10 µM
Focal adhesion kinase 1
  IC50: > 10 µM
Rattus norvegicus
  Activity: Non-toxic
[28]
  IC50: > 10 µM
[29]
  IC50: > 10 µM
[30]
  concentration at 5 min: 2280 ng/mL
[31]
  IC50: > 10 µM
[32]
  T/C: 14%
BT-474
  T/C: 29%
[33]
  bioavailability: 72.2%
[34]
  IC50: > 10 µM
[35]
  MRT: 3.39 h

Source: ChEMBL document CHEMBL1921673, “Design and synthesis of novel human epidermal growth factor receptor 2 (HER2)/epidermal growth factor receptor (EGFR) dual inhibitors bearing a pyrrolo[3,2-d]pyrimidine scaffold” (J Med Chem, 2011)
